Key:
[1] = molecular target: Alpha-1D adrenergic receptor (Homo sapiens, UniProt P25100); test: Binding affinity to human alpha-1D adrenergic receptor by PDSP assay
[2] = molecular target: Alpha-1A adrenergic receptor (Homo sapiens, UniProt P35348); test: Binding affinity to human alpha-1A adrenergic receptor by PDSP assay
[3] = molecular target: Alpha-2B adrenergic receptor (Homo sapiens, UniProt P18089); test: Binding affinity to human alpha-2B adrenergic receptor by PDSP assay
[4] = molecular target: 5-hydroxytryptamine receptor 3A (Homo sapiens, UniProt P46098); test: Binding affinity to human 5-HT3 receptor by PDSP assay
D(3) dopamine receptor = D(3) dopamine receptor (Homo sapiens, UniProt P35462); test: Binding affinity to human dopamine D3 receptor by PDSP assay
[5] = molecular target: 5-hydroxytryptamine receptor 7 (Homo sapiens, UniProt P34969); test: Binding affinity to human 5-HT7 receptor by PDSP assay
[6] = molecular target: Sodium-dependent noradrenaline transporter (Homo sapiens, UniProt P23975); test: Binding affinity to human NET by PDSP assay
[7] = molecular target: Muscarinic acetylcholine receptor M4 (Homo sapiens, UniProt P08173); test: Binding affinity to human muscarinic M4 receptor by PDSP assay
Histamine H1 receptor = Histamine H1 receptor (Homo sapiens, UniProt P35367); test: Binding affinity to human histamine H1 receptor by PDSP assay
[8] = molecular target: Delta-type opioid receptor (Homo sapiens, UniProt P41143); test: Binding affinity to human delta opioid receptor by PDSP assay
Mu-type opioid receptor = Mu-type opioid receptor (Homo sapiens, UniProt P35372); test: Binding affinity to human mu opioid receptor by PDSP assay
[9] = molecular target: 5-hydroxytryptamine receptor 5A (Homo sapiens, UniProt P47898); test: Binding affinity to human 5-HT5A receptor by PDSP assay
[10] = Binding affinity to human sigma-2 receptor by PDSP assay
[11] = molecular target: Metabotropic glutamate receptor 5 (Rattus norvegicus, UniProt P31424); test: Binding affinity to mGluR5 in rat brain; assay type: tissue-based
[12] = molecular target: Sodium-dependent serotonin transporter (Homo sapiens, UniProt P31645); test: Binding affinity to human SERT by PDSP assay
[13] = molecular target: Beta-2 adrenergic receptor (Homo sapiens, UniProt P07550); test: Binding affinity to human beta2 adrenergic receptor by PDSP assay
[14] = molecular target: Alpha-1B adrenergic receptor (Homo sapiens, UniProt P35368); test: Binding affinity to human alpha-1B adrenergic receptor by PDSP assay
[15] = molecular target: Muscarinic acetylcholine receptor M5 (Homo sapiens, UniProt P08912); test: Binding affinity to human muscarinic M5 receptor by PDSP assay
[16] = molecular target: GABA-A receptor; agonist GABA site; test: Binding affinity to human GABAA receptor by PDSP assay; assay type: protein-complex assay
[17] = molecular target: Metabotropic glutamate receptor 5 (Homo sapiens, UniProt P41594); test: Binding affinity to human mGluR5 by PDSP assay
[18] = molecular target: Glutamate [NMDA] receptor; test: Binding affinity to human NMDA receptor by PDSP assay
[19] = molecular target: 5-hydroxytryptamine receptor 1A (Homo sapiens, UniProt P08908); test: Binding affinity to human 5-HT1A receptor by PDSP assay
[20] = molecular target: 5-hydroxytryptamine receptor 1D (Homo sapiens, UniProt P28221); test: Binding affinity to human 5-HT1D receptor by PDSP assay
[21] = molecular target: Alpha-2C adrenergic receptor (Homo sapiens, UniProt P18825); test: Binding affinity to human alpha-2C adrenergic receptor by PDSP assay
D(2) dopamine receptor = D(2) dopamine receptor (Homo sapiens, UniProt P14416); test: Binding affinity to human dopamine D2 receptor by PDSP assay
[22] = molecular target: Muscarinic acetylcholine receptor M1 (Homo sapiens, UniProt P11229); test: Binding affinity to human muscarinic M1 receptor by PDSP assay
[23] = molecular target: 5-hydroxytryptamine receptor 2C (Homo sapiens, UniProt P28335); test: Binding affinity to human 5-HT2C receptor by PDSP assay
[24] = molecular target: 5-hydroxytryptamine receptor 2B (Homo sapiens, UniProt P41595); test: Binding affinity to human 5-HT2B receptor by PDSP assay
[25] = molecular target: Sigma non-opioid intracellular receptor 1 (Homo sapiens, UniProt Q99720); test: Binding affinity to human sigma-1 receptor by PDSP assay
[26] = molecular target: 5-hydroxytryptamine receptor 1B (Homo sapiens, UniProt P28222); test: Binding affinity to human 5-HT1B receptor by PDSP assay
D(1B) dopamine receptor = D(1B) dopamine receptor (Homo sapiens, UniProt P21918); test: Binding affinity to human dopamine D5 receptor by PDSP assay
Translocator protein = Translocator protein (Homo sapiens, UniProt P30536); test: Binding affinity to human TSPO receptor by PDSP assay
D(1A) dopamine receptor = D(1A) dopamine receptor (Homo sapiens, UniProt P21728); test: Binding affinity to human dopamine D1 receptor by PDSP assay
[27] = molecular target: 5-hydroxytryptamine receptor 6 (Homo sapiens, UniProt P50406); test: Binding affinity to human 5-HT6 receptor by PDSP assay
[28] = molecular target: Muscarinic acetylcholine receptor M2 (Homo sapiens, UniProt P08172); test: Binding affinity to human muscarinic M2 receptor by PDSP assay
[29] = Binding affinity to BZP site in rat brain by PDSP assay; assay type: tissue-based
[30] = molecular target: Alpha-2A adrenergic receptor (Homo sapiens, UniProt P08913); test: Binding affinity to human alpha-2A adrenergic receptor by PDSP assay
[31] = molecular target: Beta-3 adrenergic receptor (Homo sapiens, UniProt P13945); test: Binding affinity to human beta3 adrenergic receptor by PDSP assay
D(4) dopamine receptor = D(4) dopamine receptor (Homo sapiens, UniProt P21917); test: Binding affinity to human dopamine D4 receptor by PDSP assay
Histamine H3 receptor = Histamine H3 receptor (Homo sapiens, UniProt Q9Y5N1); test: Binding affinity to human histamine H3 receptor by PDSP assay
[32] = molecular target: Muscarinic acetylcholine receptor M3 (Homo sapiens, UniProt P20309); test: Binding affinity to human muscarinic M3 receptor by PDSP assay
[33] = molecular target: 5-hydroxytryptamine receptor 1E (Homo sapiens, UniProt P28566); test: Binding affinity to human 5-HT1E receptor by PDSP assay
[34] = molecular target: Beta-1 adrenergic receptor (Homo sapiens, UniProt P08588); test: Binding affinity to human beta1 adrenergic receptor by PDSP assay
[35] = molecular target: Kappa-type opioid receptor (Homo sapiens, UniProt P41145); test: Binding affinity to human kappa opioid receptor by PDSP assay

Chain of Beta-2 adrenergic receptor (P07550 whole entry): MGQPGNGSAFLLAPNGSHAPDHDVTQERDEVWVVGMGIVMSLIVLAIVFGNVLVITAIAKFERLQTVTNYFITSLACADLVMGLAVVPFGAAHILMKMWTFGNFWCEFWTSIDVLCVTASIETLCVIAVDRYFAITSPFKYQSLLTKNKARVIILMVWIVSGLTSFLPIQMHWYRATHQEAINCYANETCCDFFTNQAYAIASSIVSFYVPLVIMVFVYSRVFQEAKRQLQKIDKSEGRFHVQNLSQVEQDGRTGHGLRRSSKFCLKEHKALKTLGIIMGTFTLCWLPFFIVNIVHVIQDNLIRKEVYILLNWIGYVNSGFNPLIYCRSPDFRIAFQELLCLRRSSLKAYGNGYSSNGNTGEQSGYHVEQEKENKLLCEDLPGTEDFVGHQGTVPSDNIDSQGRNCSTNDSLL
Chain of 5-hydroxytryptamine receptor 6 (P50406 whole entry): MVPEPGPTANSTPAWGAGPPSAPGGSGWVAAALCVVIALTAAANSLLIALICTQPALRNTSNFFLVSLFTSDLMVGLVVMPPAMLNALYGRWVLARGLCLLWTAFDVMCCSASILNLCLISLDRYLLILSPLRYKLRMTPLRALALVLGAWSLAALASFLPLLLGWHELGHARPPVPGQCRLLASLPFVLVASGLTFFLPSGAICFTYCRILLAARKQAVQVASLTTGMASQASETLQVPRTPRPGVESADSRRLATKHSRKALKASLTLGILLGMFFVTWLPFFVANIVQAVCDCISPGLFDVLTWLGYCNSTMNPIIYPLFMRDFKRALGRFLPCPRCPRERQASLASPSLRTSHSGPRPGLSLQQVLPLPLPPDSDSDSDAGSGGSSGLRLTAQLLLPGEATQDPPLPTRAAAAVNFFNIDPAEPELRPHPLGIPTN
Chain of 5-hydroxytryptamine receptor 1D (P28221 whole entry): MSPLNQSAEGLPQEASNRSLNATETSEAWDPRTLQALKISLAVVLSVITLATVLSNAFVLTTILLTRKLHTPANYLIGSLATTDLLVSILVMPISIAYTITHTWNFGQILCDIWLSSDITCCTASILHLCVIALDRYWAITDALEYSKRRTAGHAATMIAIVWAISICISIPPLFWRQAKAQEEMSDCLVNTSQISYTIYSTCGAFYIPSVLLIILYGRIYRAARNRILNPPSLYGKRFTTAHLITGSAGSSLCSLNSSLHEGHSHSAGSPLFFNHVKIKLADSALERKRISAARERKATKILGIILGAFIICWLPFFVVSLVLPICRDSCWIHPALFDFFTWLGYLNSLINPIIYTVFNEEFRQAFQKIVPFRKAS
Chain of Sigma non-opioid intracellular receptor 1 (Q99720 whole entry): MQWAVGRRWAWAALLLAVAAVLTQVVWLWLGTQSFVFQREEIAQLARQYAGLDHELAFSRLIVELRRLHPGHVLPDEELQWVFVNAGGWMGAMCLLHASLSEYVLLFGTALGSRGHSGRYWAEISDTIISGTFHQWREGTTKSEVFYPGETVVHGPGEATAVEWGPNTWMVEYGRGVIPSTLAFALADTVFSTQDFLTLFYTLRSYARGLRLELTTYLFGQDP
Chain of Alpha-2A adrenergic receptor (P08913 whole entry): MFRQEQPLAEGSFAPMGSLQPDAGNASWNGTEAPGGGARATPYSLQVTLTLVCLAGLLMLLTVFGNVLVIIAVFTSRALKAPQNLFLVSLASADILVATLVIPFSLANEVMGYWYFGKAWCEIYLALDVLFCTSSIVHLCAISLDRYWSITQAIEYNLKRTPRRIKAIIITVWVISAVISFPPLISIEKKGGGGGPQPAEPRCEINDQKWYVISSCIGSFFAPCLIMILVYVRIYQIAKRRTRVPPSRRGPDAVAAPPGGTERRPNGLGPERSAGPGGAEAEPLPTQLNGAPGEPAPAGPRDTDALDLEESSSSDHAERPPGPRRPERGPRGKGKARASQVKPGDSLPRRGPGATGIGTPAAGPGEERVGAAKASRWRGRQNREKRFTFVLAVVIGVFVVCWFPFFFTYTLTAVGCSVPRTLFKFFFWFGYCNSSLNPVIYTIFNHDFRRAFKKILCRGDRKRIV
Chain of Sodium-dependent serotonin transporter (P31645 whole entry): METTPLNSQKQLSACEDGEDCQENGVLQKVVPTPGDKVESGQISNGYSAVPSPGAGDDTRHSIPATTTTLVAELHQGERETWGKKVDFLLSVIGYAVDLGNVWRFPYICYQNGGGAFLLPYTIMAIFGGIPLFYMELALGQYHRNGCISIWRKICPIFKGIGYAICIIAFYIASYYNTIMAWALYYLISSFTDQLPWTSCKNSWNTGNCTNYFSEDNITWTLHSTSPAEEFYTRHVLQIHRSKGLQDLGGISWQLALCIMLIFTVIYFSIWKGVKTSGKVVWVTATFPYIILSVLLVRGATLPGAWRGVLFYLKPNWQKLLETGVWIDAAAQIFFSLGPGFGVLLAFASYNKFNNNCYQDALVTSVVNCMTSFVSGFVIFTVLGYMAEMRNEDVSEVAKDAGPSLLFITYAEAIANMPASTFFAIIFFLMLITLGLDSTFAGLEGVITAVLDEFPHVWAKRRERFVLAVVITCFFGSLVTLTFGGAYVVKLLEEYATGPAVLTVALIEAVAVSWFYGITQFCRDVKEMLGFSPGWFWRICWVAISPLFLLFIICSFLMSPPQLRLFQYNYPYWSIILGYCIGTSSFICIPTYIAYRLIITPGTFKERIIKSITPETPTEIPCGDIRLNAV
Chain of 5-hydroxytryptamine receptor 3A (P46098 whole entry): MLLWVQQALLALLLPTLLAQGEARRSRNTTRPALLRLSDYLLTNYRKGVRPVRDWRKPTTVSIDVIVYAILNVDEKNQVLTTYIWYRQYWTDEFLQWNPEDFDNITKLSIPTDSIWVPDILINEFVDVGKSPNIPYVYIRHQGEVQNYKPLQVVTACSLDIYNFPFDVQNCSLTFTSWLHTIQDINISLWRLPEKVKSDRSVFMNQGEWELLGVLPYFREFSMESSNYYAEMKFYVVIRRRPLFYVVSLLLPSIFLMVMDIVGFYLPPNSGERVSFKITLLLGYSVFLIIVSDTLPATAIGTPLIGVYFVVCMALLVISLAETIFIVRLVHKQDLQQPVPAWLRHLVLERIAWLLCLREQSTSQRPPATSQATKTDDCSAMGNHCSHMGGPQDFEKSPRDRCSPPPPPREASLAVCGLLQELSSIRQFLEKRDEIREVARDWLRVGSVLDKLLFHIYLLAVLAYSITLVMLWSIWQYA
Chain of Alpha-1D adrenergic receptor (P25100 whole entry): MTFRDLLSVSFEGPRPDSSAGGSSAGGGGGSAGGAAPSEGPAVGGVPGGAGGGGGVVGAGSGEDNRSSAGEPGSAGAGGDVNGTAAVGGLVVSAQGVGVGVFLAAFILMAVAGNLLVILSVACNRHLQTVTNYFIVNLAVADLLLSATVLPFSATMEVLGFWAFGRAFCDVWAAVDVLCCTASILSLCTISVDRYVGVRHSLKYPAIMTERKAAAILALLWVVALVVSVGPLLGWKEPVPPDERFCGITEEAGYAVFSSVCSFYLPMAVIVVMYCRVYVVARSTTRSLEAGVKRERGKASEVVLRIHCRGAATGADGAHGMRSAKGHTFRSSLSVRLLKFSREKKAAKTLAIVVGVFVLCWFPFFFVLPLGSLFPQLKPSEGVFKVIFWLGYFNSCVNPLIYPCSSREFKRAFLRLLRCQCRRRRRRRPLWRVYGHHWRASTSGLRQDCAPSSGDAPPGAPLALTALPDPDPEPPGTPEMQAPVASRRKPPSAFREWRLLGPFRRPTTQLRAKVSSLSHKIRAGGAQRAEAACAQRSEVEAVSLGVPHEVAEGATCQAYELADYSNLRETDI
Chain of D(3) dopamine receptor (P35462 whole entry): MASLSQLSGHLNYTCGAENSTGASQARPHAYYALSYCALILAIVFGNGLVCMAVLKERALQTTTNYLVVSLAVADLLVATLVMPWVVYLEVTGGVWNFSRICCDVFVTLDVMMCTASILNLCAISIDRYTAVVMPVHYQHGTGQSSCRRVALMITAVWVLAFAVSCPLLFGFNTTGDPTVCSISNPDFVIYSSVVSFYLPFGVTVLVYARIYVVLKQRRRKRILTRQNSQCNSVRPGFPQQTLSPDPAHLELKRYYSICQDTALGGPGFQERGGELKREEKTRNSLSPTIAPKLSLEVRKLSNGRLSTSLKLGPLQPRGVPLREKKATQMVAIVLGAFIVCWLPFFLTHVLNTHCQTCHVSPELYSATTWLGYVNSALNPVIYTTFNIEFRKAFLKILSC
Chain of D(1B) dopamine receptor (P21918 whole entry): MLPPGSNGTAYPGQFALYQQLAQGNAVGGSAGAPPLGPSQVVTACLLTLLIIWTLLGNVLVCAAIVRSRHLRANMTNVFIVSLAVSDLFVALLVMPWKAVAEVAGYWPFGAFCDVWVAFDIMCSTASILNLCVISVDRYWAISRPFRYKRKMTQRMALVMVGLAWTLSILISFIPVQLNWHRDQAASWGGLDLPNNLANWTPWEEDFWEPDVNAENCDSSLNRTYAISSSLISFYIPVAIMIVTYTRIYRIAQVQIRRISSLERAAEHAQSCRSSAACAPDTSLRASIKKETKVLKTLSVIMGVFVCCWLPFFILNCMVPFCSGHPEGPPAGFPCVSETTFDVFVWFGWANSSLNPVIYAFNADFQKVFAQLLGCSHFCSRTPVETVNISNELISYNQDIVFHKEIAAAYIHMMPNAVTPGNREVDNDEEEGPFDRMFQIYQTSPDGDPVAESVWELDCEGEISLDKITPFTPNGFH
Chain of 5-hydroxytryptamine receptor 2C (P28335 whole entry): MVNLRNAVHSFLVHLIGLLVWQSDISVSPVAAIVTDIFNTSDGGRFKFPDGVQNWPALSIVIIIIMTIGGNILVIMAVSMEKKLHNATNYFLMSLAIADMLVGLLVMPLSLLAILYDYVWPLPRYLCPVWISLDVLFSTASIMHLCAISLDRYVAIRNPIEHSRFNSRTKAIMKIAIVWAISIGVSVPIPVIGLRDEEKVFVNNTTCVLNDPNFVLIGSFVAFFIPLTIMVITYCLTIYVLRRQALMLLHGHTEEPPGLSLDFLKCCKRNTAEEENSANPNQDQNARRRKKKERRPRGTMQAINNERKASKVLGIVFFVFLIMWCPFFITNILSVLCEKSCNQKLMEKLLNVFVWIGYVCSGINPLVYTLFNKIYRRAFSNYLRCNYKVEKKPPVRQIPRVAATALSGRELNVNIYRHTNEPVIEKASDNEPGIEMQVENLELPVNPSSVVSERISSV

SMILES: CNc1cc(-c2csc(N(C)C(=O)c3ccc(F)cc3)n2)ncn1
- Ki [1]: > 10 µM
- Ki [2]: > 10 µM
- Ki [3]: > 10 µM
- Ki [4]: > 10 µM
- Ki (D(3) dopamine receptor): > 10 µM
- Ki [5]: > 10 µM
- Ki [6]: > 10 µM
- Ki [7]: > 10 µM
- Ki (Histamine H1 receptor): > 10 µM
- Ki [8]: > 10 µM
- Ki (Mu-type opioid receptor): > 10 µM
- Ki [9]: > 10 µM
- Ki [10]: > 10 µM
- Ki [11]: 2.1 µM
- Ki [12]: > 10 µM
- Ki [13]: > 10 µM
- Ki [14]: > 10 µM
- Ki [15]: > 10 µM
- Ki [16]: > 10 µM
- Ki [17]: 7.9 µM
- Ki [18]: > 10 µM
- Ki [19]: > 10 µM
- Ki [20]: > 10 µM
- Ki [21]: > 10 µM
- Ki (D(2) dopamine receptor): > 10 µM
- Ki [22]: > 10 µM
- Ki [23]: > 10 µM
- Ki [24]: > 10 µM
- Ki [25]: > 10 µM
- Ki [26]: > 10 µM
- Ki (D(1B) dopamine receptor): > 10 µM
- Ki (Translocator protein): > 10 µM
- Ki (D(1A) dopamine receptor): > 10 µM
- Ki [27]: > 10 µM
- Ki [28]: > 10 µM
- Ki [29]: > 10 µM
- Ki [30]: > 10 µM
- Ki [31]: > 10 µM
- Ki (D(4) dopamine receptor): > 10 µM
- Ki (Histamine H3 receptor): > 10 µM
- Ki [32]: > 10 µM
- Ki [33]: > 10 µM
- Ki [34]: > 10 µM
- Ki [35]: > 10 µM
